# Biological target: α-glucosidase
# Experiment: pNPG colorimetric enzyme kinetics (Lineweaver–Burk; IC50 […]), supported by fluorescence quenching and circular dichroism
# Assay type: biochemical, Saccharomyces cerevisiae
smiles,measurement,value
"COc1c(O)cc2oc3cc(O)c(CC=C(C)C)c(O)c3c(=O)c2c1CC=C(C)C [α-mangostin, 1,3,6-trihydroxy-7-methoxy-2,8-bis(3-methylbut-2-en-1-yl)-9H-xanthen-9-one]",Ki,30.3 µM

# — article PMC8777799, “Anti-α-Glucosidase and Antiglycation Activities of α-Mangostin and New Xanthenone Derivatives: Enzymatic Kinetics and Mechanistic Insights through In Vitro Studies” (Molecules, 2022)
